# Test results published in PubChem BioAssay AID2060618 (Molecular Pharmacology Branch, DTP, NCI, 2025).
# Where “and” joins values, the source holds several entries; their conditions need not be identical. Equal values may be shown once.
# System: 454973-116-R2-J3-PDC spheroids, percent test/control viability
# Assay: Anticancer human tumor 454973-116-R2-J3-PDC patient-derived pancreatic carcinoma cell line growth inhibition [CLK]
# Details: spheroids with HUVEC and MSC; for viability, T/C: stronger effect = lower value
# Source text: A high-throughput screen of multi-cell type tumor spheroids was designed to identify active combinations of […] and targeted small molecules. Complex spheroids include a stromal component modeled by human endothelial cells (HUVEC) and fibroblasts modeled by human mesenchymal stem cells (MSCs). The concentration ranges selected for each drug and investigational agent were based upon clinically achievable concentrations if the clinical Cmax of the agent was known.
# Compounds. The drugs and investigational agents: cirtuvivint (SM08502; NSC835563), CC-671 (NSC850746), vemurafenib (NSC761431), tapotoclax (NSC804041), sotorasib (NSC818433), adagrasib (NSC831453), MRTX-1133 (NSC836407), BAY2416964 (NSC825713), copanlisib (NSC816437), inavolisib (NSC800729), abemaciclib (NSC768073), osimertinib (NSC779217), entinostat (NSC756642), eltanexor (KPT-8602, NSC794443), venetoclax (NSC766270), ceralasertib (NSC777638), bortezomib (NSC756655), olaparib (NSC753686), talazoparib (NSC767125), alisertib (NSC759677), peposertib (NSC802822), gemcitabine (NSC613327), 5-fluorouracil (NSC19893), SN-38 (NSC673596), oxaliplatin (NSC266046), paclitaxel (NSC125973), and doxorubicin (NSC123127), were obtained from the National Cancer Institute (NCI) Developmental Therapeutics Program Chemical Repository. The FDA-approved anticancer drug set is available from the Developmental Therapeutics Program at https://dtp.cancer.gov/organization/dscb/obtaining/available plates.htm. […] The stock solutions were prepared in dimethyl sulfoxide (DMSO, Sigma-Aldrich, St. Louis, MO, cat. D2650), except for the platinum complexes which were prepared in saline (Quality Biological, Gaithersburg, MD, cat. 114-055-101), at 800-fold the tested concentration and stored at -70 degrees C prior to their use. All drugs and investigational agents were tested over a range starting from a high concentration at or near the clinical Cmax and decreasing in half-log increments. If the clinical Cmax for an agent had not been determined, the highest concentration tested was 10 microM.
# Cell Culture. All cells were maintained in an incubator at 37 degrees C and 5% CO2 with 95% humidity. The PDC lines were cultured according to standard operating procedures established by the NCI PDMR. Briefly, all PDCs were thawed and cultured in Matrigel-coated flasks prepared with a working solution of 1X Ham's F-12 nutrient mix, without supplementation (Invitrogen, Waltham, MA, cat. 11765054), 100 U/mL penicillin-streptomycin (Invitrogen, cat. 15140122), and 2.5% Matrigel (Corning Inc., Corning, NY, cat. 354248) for the first three passages. The 947758-054-R-J2-PDC line was cultured in 6B/Colon 1A media, which includes advanced DMEM/F-12 (Thermo Fisher Scientific, cat. 12634028), 10 mM HEPES (Thermo Fisher Scientific, cat. 15630080), 1X GlutaMAX supplement (Thermo Fisher Scientific, cat. 35050061), 0.1 mg/mL primocin (InvivoGen, cat. ant-pm-2), 10% defined fetal bovine serum, heat inactivated (HyClone Laboratories Inc., cat. SH30070.03HI), 1.25 mM N-Acetyl-L-cysteine (Sigma-Aldrich, cat. A9165), 10 mM nicotinamide (Sigma-Aldrich, cat. N0636), 1X B-27 supplement (Thermo Fisher Scientific, cat. 17504044), 1X N-2 supplement (Thermo Fisher Scientific, cat. 17502048), and 10 microM Y-27632 dihydrochloride (Tocris Bioscience, cat. 1254). The 876862-298-R-J1-PDC was cultured in 6E media, which includes all 6B/Colon 1A media components plus 50% L-WRN conditioned media (ATCC, cat. CRL-3276), 50 ng/mL recombinant human EGF recombinant protein (hEGF; Thermo Fisher Scientific, cat. PHG0311), 10 ng/mL recombinant human fibroblast growth factor 10 (hGFG-10; PeproTech, cat. 100-26), 1 ng/mL recombinant human fibroblast growth factor 2 (hFGF-2; PeproTech, cat. 100-18B), and 1 µM prostaglandin E2 (PGE2; Tocris, cat. 2296). The 227483-062-R1-J1-PDC line was cultured in Panc media, containing all 6E components except hFGF-2, with the addition of 500 nM SB-431542 (Selleckchem, cat. S1067) and 10 nM gastrin (Tocris, cat. 3006). […]
# 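Also: spheroids exposed to compounds for 7 days before readout.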
SMILES,"viability, T/C (compound 0.0316 µM)","viability, T/C (compound 0.1 µM)","viability, T/C (compound 0.316 µM)","viability, T/C (compound 1 µM)","viability, T/C (compound 3.16 µM)","viability, T/C (compound 10 µM)",IC50 (curve of compound),further results
C#Cc1c(F)ccc2cc(O)cc(-c3ncc4c(N5CC6CCC(C5)N6)nc(OCC56CCCN5CC(F)C6)nc4c3F)c12 (stereo not given),57% and 54.6%,43.1% and 39.1%,33.8% and 39.8%,29.4% and 31.3%,30.1% and 29.4%,22.2% and 18.5%,0.0558 µM and 0.0435 µM,
C=C(F)C(=O)N1CCN(c2nc(OCC3CCCN3C)nc3c2CCN(c2cccc4cccc(Cl)c24)C3)CC1CC#N (stereo not given),105% and 106%,102% and 107%,110% and 114%,93.8% and 109%,104% and 105%,1.39% and 0.39%,5.77 µM and 5.78 µM,
C=CC(=O)N1CCN(c2nc(=O)n(-c3c(C)ccnc3C(C)C)c3nc(-c4c(O)cccc4F)c(F)cc23)C(C)C1 (stereo not given),107% and 99.3%,107% and 106%,107% and 105%,110% and 97.4%,124% and 116%,124% and 118%,> 10 µM,
C=CC(=O)Nc1cc(Nc2nccc(-c3cn(C)c4ccccc34)n2)c(OC)cc1N(C)CCN(C)C,,,,,,,> 0.3 µM,"viability, T/C (compound 0.000949 µM): 104% and 111%; viability, T/C (compound 0.003 µM): 107% and 98.9%; viability, T/C (compound 0.00949 µM): 97.8% and 95%; viability, T/C (compound 0.03 µM): 105% and 108%; viability, T/C (compound 0.0949 µM): 115% and 111%; viability, T/C (compound 0.3 µM): 109% and 100%"
CC(C)CC(NC(=O)C(Cc1ccccc1)NC(=O)c1cnccn1)B(O)O (stereo not given),,,,,,,0.00288 µM and 0.00231 µM,"viability, T/C (compound 0.000949 µM): 106% and 104%; viability, T/C (compound 0.003 µM): 47.9% and 34.1%; viability, T/C (compound 0.00949 µM): 0.32% and 0.38%; viability, T/C (compound 0.03 µM): 0.21% and 1.51%; viability, T/C (compound 0.0949 µM): 0.12% and 2.95%; viability, T/C (compound 0.3 µM): 0.11% and 1.42%"
CC(CO)NC(=O)c1cc(-c2ccc(Cl)cc2)nn(-c2cnn(C)c2)c1=O (stereo not given),112% and 99.4%,106% and 92.4%,114% and 111%,99.3% and 107%,103% and 109%,71.3% and 79%,> 10 µM,
CC(Nc1ccc2c(c1)OCCn1cc(N3C(=O)OCC3C(F)F)nc1-2)C(N)=O (stereo not given),98.3% and 101%,95.5% and 92.3%,99.5% and 84%,84.7% and 86.1%,78.1% and 71%,54.1% and 45%,> 10 µM and 8.31 µM,
CC1(C)CCC(CN2CCN(c3ccc(C(=O)NS(=O)(=O)c4ccc(NCC5CCOCC5)c([N+](=O)[O-])c4)c(Oc4cnc5[nH]ccc5c4)c3)CC2)=C(c2ccc(Cl)cc2)C1,101% and 99.6%,102% and 95.9%,113% and 106%,106% and 102%,119% and 111%,25.8% and 21.3%,7.15 µM and 6.67 µM,
CC1COCCN1c1cc(C2(S(C)(=N)=O)CC2)nc(-c2ccnc3[nH]ccc23)n1 (stereo not given),109% and 101%,109% and 97.7%,104% and 102%,101% and 98%,91.1% and 87.8%,38.4% and 36.1%,7.77 µM and 7.34 µM,
CCCS(=O)(=O)Nc1ccc(F)c(C(=O)c2c[nH]c3ncc(-c4ccc(Cl)cc4)cc23)c1F,99.6% and 110%,103% and 101%,112% and 105%,102% and 103%,108% and 101%,39.4% and 25.2%,8.3 µM and 6.87 µM,
CCN1CCN(Cc2ccc(Nc3ncc(F)c(-c4cc(F)c5nc(C)n(C(C)C)c5c4)n3)nc2)CC1,89.6% and 75.1%,75.3% and 70.8%,60.3% and 65%,62.7% and 64.3%,,,> 1 µM,"viability, T/C (compound 0.00316 µM): 95.9% and 106%; viability, T/C (compound 0.01 µM): 99.1% and 87.2%"
CCc1c2c(nc3ccc(O)cc13)-c1cc3c(c(=O)n1C2)COC(=O)[C@]3(O)CC,12% and 13%,6.22% and 7.38%,2.81% and 3.92%,1.02% and 3.21%,,,< 0.00316 µM,"viability, T/C (compound 0.00316 µM): 39.9% and 31.5%; viability, T/C (compound 0.01 µM): 15.9% and 14.3%"
CN1CCN(c2cc(C(=O)Nc3cc4cc(-c5cnn(C)c5)ccc4cn3)ccn2)CC1,102% [middle of 12 runs],81.8% [middle of 12 runs],2.31% [middle of 11 runs],0.41% [middle of 10 runs],0.23% [middle of 9 runs],0.25% [middle of 10 runs],,"IC50 (compound alone, run of 09/18/2023): 159 nM [middle of 9 runs]"
CNC(=O)c1ccc(Nc2nc(OC3CCCC3)c3c(-c4ccc5nc(C)oc5c4)c[nH]c3n2)c(OC)c1,106% [middle of 12 runs],104% [middle of 12 runs],47.8% [middle of 12 runs],30.7% [middle of 12 runs],26.1% [middle of 12 runs],28.5% [middle of 11 runs],,"IC50 (compound alone, run of 09/19/2023): 302 nM [middle of 12 runs]"
COC1C=CCC(C)C(C)S(=O)(=O)NC(=O)c2ccc3c(c2)N(CC2CCC21)CC1(CCCc2cc(Cl)ccc21)CO3 (stereo not given),109% and 95.4%,103% and 97.3%,95.6% and 90.4%,94.7%,99.9% and 80.9%,8.41% and 5.61%,5.92 µM and 5.07 µM,
COc1c(OCCCN2CCOCC2)ccc2c3n(c(=NC(=O)c4cnc(N)nc4)nc12)CCN3,99.2% and 75.2%,44% and 39%,23.6% and 20.3%,8.06% and 7.21%,,,0.0884 µM and 0.0724 µM,"viability, T/C (compound 0.00316 µM): 97.1% and 109%; viability, T/C (compound 0.01 µM): 98.4% and 90.9%"
Cn1ncnc1[C@H]1c2n[nH]c(=O)c3cc(F)cc(c23)N[C@@H]1c1ccc(F)cc1,93.7% and 87.6%,91.9% and 89.7%,,,,,> 0.1 µM,"viability, T/C (compound 0.000316 µM): 100% and 113%; viability, T/C (compound 0.001 µM): 96.3% and 104%; viability, T/C (compound 0.00316 µM): 105% and 102%; viability, T/C (compound 0.01 µM): 93.3% and 96.9%"
NC(=O)C(=Cn1cnc(-c2cc(C(F)(F)F)cc(C(F)(F)F)c2)n1)c1cncnc1,,,,,,,0.614 µM and 0.362 µM,"viability, T/C (compound 0.00949 µM): 97.3% and 100%; viability, T/C (compound 0.03 µM): 97% and 95.2%; viability, T/C (compound 0.0949 µM): 83.1% and 78.2%; viability, T/C (compound 0.3 µM): 63.3% and 48.4%; viability, T/C (compound 0.949 µM): 42.4% and 35.4%; viability, T/C (compound 3 µM): 21.7% and 10.8%"
Nc1ccccc1NC(=O)c1ccc(CNC(=O)OCc2cccnc2)cc1,103% and 100%,96.6% and 102%,90.7% and 89.4%,71.8% and 70.5%,29.7% and 26.2%,9.11% and 5.25%,1.8 µM and 1.68 µM,
O=C(c1cc(Cc2n[nH]c(=O)c3ccccc23)ccc1F)N1CCN(C(=O)C2CC2)CC1,115% and 104%,95.9% and 101%,99.6% and 101%,101% and 99.2%,94.5% and 98.7%,71.1% and 77.5%,> 10 µM,
